Experimental data taken from patent US20240316051A1, “A PHARMACEUTICAL COMBINATION AND USE THEREOF” (Ascentage Pharma (Suzhou) Co., Ltd., priority 2021, published 2024).

biological target: T1, EED (1-441)-His protein (Homo sapiens, UniProt O75530); assay: EED-H3K27Me3 peptide competition binding assay by AlphaScreen; details: IC50 class, Table 4B, read-out: Alpha screen
T1 construct: 20 nM EED (1-441)-His protein
Outline: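 EED(1-441)-His was preincubated 15 min with compound, then biotin-H3K27Me3(19-33) peptide added for 30 min; both were added as 20 nM solutions in 25 mM HEPES pH 8, 0.02% Tween-20, 0.5% BSA. Ni-chelate acceptor and streptavidin donor beads (10 μg/ml each final) were added for 1 h in the dark at RT. Signal read at 615 nm (680 nm excitation), normalised to controls and fitted to dose-response for IC50.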

T1 sequence (O75530 whole entry): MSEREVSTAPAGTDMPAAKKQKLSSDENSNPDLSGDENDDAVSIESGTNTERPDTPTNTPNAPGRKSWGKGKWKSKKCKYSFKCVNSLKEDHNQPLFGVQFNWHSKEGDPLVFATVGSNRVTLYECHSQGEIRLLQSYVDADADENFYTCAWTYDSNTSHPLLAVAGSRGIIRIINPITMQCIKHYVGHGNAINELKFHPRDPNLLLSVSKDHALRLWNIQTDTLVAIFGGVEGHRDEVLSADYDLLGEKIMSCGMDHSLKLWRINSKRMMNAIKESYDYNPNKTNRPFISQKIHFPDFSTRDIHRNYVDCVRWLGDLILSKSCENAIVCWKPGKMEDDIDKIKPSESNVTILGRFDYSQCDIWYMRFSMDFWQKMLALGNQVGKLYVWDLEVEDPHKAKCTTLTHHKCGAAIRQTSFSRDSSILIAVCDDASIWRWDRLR

Compound	IC50 [nM]
O=C1c2ncn3c(NCc4c(F)ccc5c4CCO5)ncc(c23)-c2ccc(C3CCOCC3)nc2CN1CC(F)(F)F [E 45, 12-(((5-fluoro-2,3-dihydrobenzofuran-4-yl)methyl)amino)-7-(tetrahydro-2H-pyran-4-yl)-4-(2,2,2-trifluoroethyl)-4,5-dihydro-3H-2,4,6,11,12a-pentaazabenzo[4,5]cycloocta[1,2,3-cd]inden-3-one]	< 10
Cc1ccc2c(n1)CCNC(=O)c1ncn3c(NCc4c(F)ccc5c4CCO5)ncc-2c13 [E 29, 13-(((5-fluoro-2,3-dihydrobenzofuran-4-yl)methyl)amino)-8-methyl-5,6-dihydro-2,4,7,12,13a-pentaazabenzo[4,5]cyclonona[1,2,3-cd]inden-3(4H)-one]	10 to 100
[2H]C([2H])(Nc1ncc2c3c(ncn13)C(=O)N(CC(F)(F)F)Cc1cc(C(=O)N(C)C)ccc1-2)c1c(F)ccc2c1CCO2 [E 24, 12-(((5-fluoro-2,3-dihydrobenzofuran-4-yl)methyl-d2)amino)-N,N-dimethyl-3-oxo-4-(2,2,2-trifluoroethyl)-4,5-dihydro-3H-2,4,11,12a-tetraazabenzo[4, 5]cycloocta[1,2,3-cd]indene-7-carboxamide]	10 to 100
CCc1ccc2c(n1)CN(CC(C)(F)F)C(=O)c1ncn3c(NCc4c(F)ccc5c4CCO5)ncc-2c13 [E 16, 4-(2,2-difluoropropyl)-7-ethyl-12-(((5-fluoro-2,3-dihydrobenzofuran-4-yl)methyl)amino)-4,5-dihydro-3H-2,4,6,11,12a-pentaazabenzo[4,5]cycloocta [1,2,3-cd]inden-3-one]	< 10

same assay, conditions: Table 4A, read-out: Alpha screen

Compound	IC50 [nM]
O=C1OCc2c(F)cccc2-c2cnc(NCc3c(F)ccc4c3CCO4)n3cnc1c23 [Compound 11, 6-fluoro-12-(((5-fluoro-2,3-dihydrobenzofuran-4-yl)methyl)amino)-3H,5H-4-oxa-2,11,12a-triazabenzo [4,5]cycloocta[1,2,3-cd]inden-3-one]	0.75
O=C1NCc2ccccc2-c2cnc(NCc3c(F)ccc4c3CCO4)n3cnc1c23 [Compound 15, 12-(((5-fluoro-2,3-dihydrobenzofuran-4-yl)methyl)amino)-4,5-dihydro-3H-2,4,11,12a-tetraazabenzo [4,5]cycloocta[1,2,3-cd]inden-3-one]	0.52
O=C1NCc2ncccc2-c2cnc(NCc3c(F)ccc4c3CCO4)n3cnc1c23 [Compound 16, 12-(((5-fluoro-2,3-dihydrobenzofuran-4-yl)methyl)amino)-4,5-dihydro-3H-2,4,6,11,12a-pentaazabenzo[4,5]cycloocta[1,2,3-cd]inden-3-one]	0.7
O=C1NCc2ccc(C(F)(F)F)cc2-c2cnc(NCc3c(F)ccc4c3CCO4)n3cnc1c23 [Compound 26, 12-(((5-fluoro-2,3-dihydrobenzofuran-4-yl)methyl)amino)-8-(trifluoromethyl)-4,5-dihydro-3H-2,4,11, 12a-tetraazabenzo[4,5]cycloocta[1,2,3-cd]inden-3-one]	9.84
CC(C)(O)CN1Cc2nc(C(F)(F)F)ccc2-c2cnc(NCc3c(F)ccc4c3CCO4)n3cnc(c23)C1=O [Compound 58, 12-(((5-fluoro-2,3-dihydrobenzofuran-4-yl)methyl)amino)-4-(2-hydroxy-2-methylpropyl)-7-(trifluoro-methyl)-4,5-dihydro-3H-2,4,6,11,12a-pentaazabenzo [4,5]cycloocta[1,2,3-cd]inden-3-one]	2.74
O=C1OCc2cc(C(F)(F)F)ccc2-c2cnc(NCc3c(F)ccc4c3CCO4)n3cnc1c23 [Compound 8, 12-(((5-fluoro-2,3-dihydrobenzofuran-4-yl)methyl)amino)-7-(trifluoromethyl)-3H,5H-4-oxa-2,11,12a-triazabenzo[4,5]cycloocta[1,2,3-cd]inden-3-one]	1.97
O=S1(=O)CCc2cc(F)ccc2-c2cnc(NCc3c(F)ccc4c3CCO4)n3cnc1c23 [Compound 96, 7-fluoro-12-(((5-fluoro-2,3-dihydrobenzofuran-4-yl)methyl)amino)-4,5-dihydro-3-thia-2,11,12a-triazabenzo[4,5]cycloocta[1,2,3-cd]indene 3,3-dioxide]	21.9
O=C1OCc2cc(F)ccc2-c2cnc(NCc3cccc4c3CCO4)n3cnc1c23 [Compound 9, 12-(((2,3-dihydrobenzofuran-4-yl)methyl)amino)-7-fluoro-3H,5H-4-oxa-2,11,12a-triazabenzo[4,5] cycloocta[1,2,3-cd]inden-3-one]	0.84
Cc1ccc2c(n1)COC(=O)c1ncn3c(NCc4c(F)ccc5c4CCO5)ncc-2c13 [Compound 18, 12-(((5-fluoro-2,3-dihydrobenzofuran-4-yl)methyl)amino)-7-methyl-3H,5H-4-oxa-2,6,11,12a-tetraazabenzo[4,5]cycloocta[1,2,3-cd]inden-3-one]	0.7
Fc1ccc2c(c1CNc1ncc3c4c(ncn14)COCc1ncccc1-3)CCO2 [Compound 2, N-((5-fluoro-2,3-dihydrobenzofuran-4-yl)methyl)-3H,5H-4-oxa-2,6,11,12a-tetraazabenzo[4,5]cycloocta[1,2,3-cd]inden-12-amine]	> 10
COc1cccc(F)c1CNc1ncc2c3c(ncn13)C(=O)N(C1CC1)Cc1cc(C(F)(F)F)ncc1-2 [Compound 70, 4-cyclopropyl-12-((2-fluoro-6-methoxybenzyl)amino)-7-(trifluoromethyl)-4,5-dihydro-3H-2,4,8, 11,12a-pentaazabenzo[4,5]cycloocta[1,2,3-cd] inden-3-one]	> 100
CC(F)(F)CN1Cc2nc(C(F)(F)F)ccc2-c2cnc(NCc3c(F)ccc4c3CCO4)n3cnc(c23)C1=O [Compound 77, 4-(2,2-difluoropropyl)-12-(((5-fluoro-2,3-dihydrobenzofuran-4-yl)methyl)amino)-7-(trifluoromethyl)-4,5-dihydro-3H-2,4,6,11,12a-pentaazabenzo[4,5] cycloocta[1,2,3-cd]inden-3-one]	1.9
Cn1cc2c(n1)COC(=O)c1ncn3c(NCc4c(F)ccc5c4CCO5)ncc-2c13 [Compound 54, 11-(((5-fluoro-2,3-dihydrobenzofuran-4-yl)methyl)amino)-7-methyl-5,7-dihydro-3H-4-oxa-2,6,7,10, 11a-pentaazacyclopenta[4,5]cycloocta[1,2,3-cd] inden-3-one]	0.95
O=C1NCc2c(F)cccc2-c2cnc(NCc3c(F)ccc4c3CCO4)n3cnc1c23 [Compound 20, 6-fluoro-12-(((5-fluoro-2,3-dihydrobenzofuran-4-yl)methyl)amino)-4,5-dihydro-3H-2,4,11,12a-tetra azabenzo[4,5]cycloocta[1,2,3-cd]inden-3-one]	0.61
O=C1c2ncn3c(NCc4c(F)ccc5c4CCO5)ncc(c23)-c2nc(C(F)(F)F)ccc2CN1CC1COCCO1 (centres unmarked) [Compound 40, 4-((1,4-dioxan-2-yl)methyl)-12-(((5-fluoro-2,3-dihydrobenzofuran-4-yl)methyl)amino)-8-(trifluoro-methyl)-4,5-dihydro-3H-2,4,9,11,12a-pentaazabenzo [4,5]cycloocta[1,2,3-cd]inden-3-one]	10.5
O=C1c2ncn3c(NCc4c(F)ccc5c4CCO5)ncc(c23)-c2ccc(C(F)(F)F)cc2CN1C1CC1 [Compound 67, 4-cyclopropyl-12-(((5-fluoro-2,3-dihydrobenzo-furan-4-yl)methyl)amino)-7-(trifluoromethyl)-4,5-dihydro-3H-2,4,11,12a-tetraazabenzo[4,5]cycloocta [1,2,3-cd]inden-3-one]	2.87
